In paper PMC10908709, “3-styrylcoumarin scaffold-based derivatives as a new approach for leishmaniasis intervention: biological and molecular modeling studies” (Journal of Parasitic Diseases: Official Organ of the Indian …, 2024):
Values joined by “and” are separate entries in the source; they are usually repeats but may differ in a detail not shown here. Equal entries are not always repeated.

Key:
[1] = test system: intracellular amastigotes of L. (V) panamensis; experiment: In vitro antileishmanial activity on intracellular amastigotes (GFP parasites, flow cytometry); format: cell-based, Leishmania (Viannia) panamensis; conditions: for inhibition at 20 µg/mL: U-937, 72 h, infected U-937 cells, read-out: Inhibition intracellular amastigotes growth (%)
[2] = test system: intracellular amastigotes of L. (V) panamensis; experiment: as above; format: cell-based, Leishmania (Viannia) panamensis; conditions: for EC50: read-out: Anti-leishmanial activity on intracellular amastigotes EC50 (converted); for SI (selectivity index = LC50/EC50): U-937 LC50 / amastigote EC50
Experimental: The activity of compounds was evaluated on intracellular amastigotes of L. (V) panamensis transfected with the green fluorescent protein gene (MHOM/CO/87/UA140-EGFP) (Pulido et al. [2012]). The effect of each compound was determined according to the inhibition of the infection evidenced by both, decrease of the infected cells and decrease of intracellular parasite amount. Briefly, U-937 human cells at a concentration of 3 × 10^5 cells/mL in RPMI 1640 containing 0.1 μg/mL of phorbol-12-myristate-13-acetate (PMA) were dispensed into each one of a 24-well cell culture plate and then infected with 5 day-old promastigotes in a 15:1 parasites per cell ratio. Plates were incubated at 34 °C, 5% CO2 during 3 h and cells were washed two times with PBS to eliminate non internalized parasites. One mL of fresh complete RPMI 1640 medium supplemented with 10% FBS and 1% antibiotics was added into each well, cells were incubated again to guarantee multiplication of intracellular parasites. After 24 h of infection, culture medium was replaced by fresh culture medium containing each compound at 50–6.12 and 1.56 μg/mL and plates were incubated at 37 °C, 5% CO2. After 72 h, inhibition of the infection was determined. For this, cells were removed from the bottom plate with a trypsin/EDTA (250 mg) solution; recovered cells were centrifuged at 1100 rpm during 10 min at 4 °C, the supernatant was discarded and cells were washed with 1 mL of cold PBS and centrifuged at 1100 rpm during 10 min at 4 °C. The supernatant was discarded and cells were suspended in 500 μL of PBS and analyzed by flow cytometry (FC 500MPL, Cytomics, Brea, CA, US). All determinations for each compound including standard drugs were carried out by triplicate, in two independent experiments. Activity of the tested compounds was carried out in parallel with infection progress in culture medium alone and in culture medium with amphotericin B as antileishmanial drugs (positive controls).
Antileishmanial activity was determined according to percentage of infected cells and parasite amount obtained for each experimental condition by flow cytometer. The percentage of infected cells was determined as the number of positive events by green fluorescence (parasites) in y-axis and Forward Scatte in x-axis. Then, the parasitic load in those infected cells was determined by a histogram of the mean fluorescence intensity (MFI) of those fluorescent parasites (Pulido et al. [2012]).
Parasitemia inhibition was calculated by Eq. 2, where the MFI of control corresponds to 100% of parasitemia. In turn, inhibition percentage corresponds to 100% Parasitemia.

CHO-K1 cells = test system: CHO-K1 cells; set-up: method as in Herrera et al. 2018; conditions: previous study; ref Herrera et al. 2018; cited from earlier work
[3] = In vitro cytotoxicity, MTT assay; format: cell-based; conditions: human
Experimental: (§1) Cytotoxic activity of the studied compounds was assessed in the human promonocytic U-937 cells (ATCC CRL-1593.2™) based on viability evaluated by the MTT (3-(4,5-dimethylthiazol-2-yl)-2,5-diphenyltetrazolium bromide) assay as described elsewhere (Taylor et al. [2011]). Briefly, U-937 cells grown in tissue flasks were harvested and washed with phosphate buffered saline (PBS) by centrifugation. Cells were counted and adjusted at 1 × 10^6 cells/mL of complete culture medium (RPMI-1640 supplemented with 10% Fetal Bovine Serum-FBS and 1% of antibiotics (100 ug/mL penicillin and 0.1 mg/mL streptomycin). One hundred µL of cell suspension were dispensed into each well of a 96-well cell-culture plate and then 100 µL of two-fold serial dilutions of the compounds (starting at 200 µg/mL) in complete RPMI 1640 medium were added. Plates were incubated at 37 °C, under 5% CO2 atmosphere during 72 h. Then, 10 µL of MTT solution (0.5 mg/mL) were added into each well, and plates were then incubated at 37 °C for 3 h. The formazan crystals were dissolved by adding 100 µL/well of dimethyl sulfoxide and 30 min incubation. Cell viability was determined according to the intensity of color (absorbance) registered as optical densities (O.D) obtained at 570 nm in a Varioskan™ Flash Multimode Reader-ThermoScientific, USA spectrophotometer. Cells cultured in absence of compounds were used as control of viability (negative control), while doxorrubicin was used as control for cytotoxic drugs. Non-specific absorbance was corrected by subtracting the O.D of the blank. Assays were conducted in two independent runs with three replicas per each concentration tested.
(§2) Cytotoxicity was determined according to cell growth (viability) and mortality percentages obtained for each isolated experiment (compounds, doxorubicin and culture medium). Results were expressed as 50 lethal concentrations (LC50), corresponding to the concentration necessary to eliminate 50% of cells, calculated by Probit analysis (Finney [1978]). Percentage of viability was calculated by Eq. 1, where the optical density (O.D) of control corresponds to 100% of viability (cell growth).1 %Mortality=1-O.D Exposed cells/O.D Control cells×100

SW480 cells = test system: SW480 cells; set-up: method as in Herrera et al. 2018; conditions: previous study; ref Herrera et al. 2018; cited from earlier work
[4] = test system: amastigote forms of L. amazonensis; set-up: method as in Rosa et al. 2017; conditions: ref Rosa et al. 2017; read-out: IC50 against amastigote forms of L. amazonensis; cited from earlier work
[5] = test system: promastigote forms of L. amazonensis; set-up: method as in Rosa et al. 2017; conditions: ref Rosa et al. 2017; read-out: IC50 against promastigote forms of L. amazonensis; cited from earlier work
[6] = test system: axenic amastigote forms of L. panamensis; set-up: method as in Arango et al. 2010; conditions: ref Arango et al. 2010; cited from earlier work
[7] = test system: intracellular amastigotes of L. donovani; set-up: method as in Pierson et al. 2010; conditions: ref Pierson et al. 2010; cited from earlier work
U-937 cells = experiment: In vitro cytotoxicity, MTT assay; format: cell-based; conditions: 72 h, MTT
Experimental: as §1, §2

Q: Which results are given for `CCCCCCCCOc1ccc2c(C)c(/C=C/c3ccc(O)c(OC)c3)c(=O)oc2c1` [Compound 6]?
A: inhibition at 20 µg/mL [1]: > 83%; EC50 ([2]; 72 h, Probit): 15.4 µg/mL and 40.5 µM; SI (selectivity index = LC50/EC50) [2]: 1.2; Inhibition intracellular amastigotes growth (%) ([2]; at 20 µg/ml, 72 h, infected U-937 cells): 83.5 ± 5.0%; IC50 ([2]; read-out: IC50 against L. (V.) panamensis amastigotes (abstract)): 40.5 µM; IC50 (CHO-K1 cells): 69.8 µM; CC50 at 72 h [3]: 19.7 µg/mL and 51.8 µM; IC50 (SW480 cells): 26.1 µM

Q: For `CCCCCCCCOc1ccc2c(C)c(/C=C/c3ccc4c(c3)OCO4)c(=O)oc2c1` [Compound 9], which inhibition at 20 µg/mL [1] is on record?
A: 0%

Q: And the CC50 at 72 h [3]?
A: > 200 µg/mL and > 529 µM

Q: What does the source list for `CC(=O)OC[C@H]1O[C@@H](Oc2ccc3c(-c4ccccc4)cc(=O)oc3c2)[C@H](OC(C)=O)[C@@H](OC(C)=O)[C@@H]1OC(C)=O` [E]?
A: IC50 [4]: 34.9 µM; IC50 [5]: 10 µM

Q: Which “EC50 against axenic amastigote forms of L. panamensis” value (“EC50 against axenic amastigote forms” for short) [6] does the source give for `C=C(C)C1OC1c1c(OC)ccc2ccc(=O)oc12` (centres unmarked) [D] here?
A: 14.1 µg/mL

Q: Which inhibition at 20 µg/mL [1] does the source give for `CCCCCCCCOc1ccc2c(C)c(/C=C/c3ccc(OC)cc3)c(=O)oc2c1` [Compound 3] here?
A: 0%

Q: And the CC50 at 72 h [3]?
A: > 200 µg/mL and > 549 µM

Q: With `CCCCCCCCOc1ccc2c(C)c(/C=C/c3ccc(OC)c(OC)c3)c(=O)oc2c1` [Compound 4] as the compound, how does the inhibition at 20 µg/mL [1] read?
A: 32.5 ± 0.8%

Q: And the CC50 at 72 h [3]?
A: 26 µg/mL and 66 µM

Q: With `COc1ccc(-c2cc(=O)oc3cc(OC)c(OC)cc23)cc1OC` [F] as the compound, how does the IC50 [7] read?
A: 1.1 µM

Q: For `CCCCCCCCOc1ccc2c(C)c(/C=C/c3ccc(OC)cc3OC)c(=O)oc2c1` [Compound 5], which inhibition at 20 µg/mL [1] is on record?
A: 3.7 ± 0.8%

Q: What about the CC50 at 72 h [3] of the same compound?
A: > 200 µg/mL and > 507 µM

Q: What does the source list for `CCCCCCCCOc1ccc2c(C)c(/C=C/c3cc(OC)c(O)c(OC)c3)c(=O)oc2c1` [Compound 8]?
A: inhibition of growth at 1 µg/mL ([1]; dose used 1.0 µg/ml, 72 h): 0%; CC50 at 72 h [3]: 1 µg/mL and 2.4 µM

Q: What does the source list for `C[C@@H]1[C@H](O)[C@@H](C)/C=C/C=C/C=C/C=C/C=C/C=C/C=C/[C@H](O[C@@H]2O[C@H](C)[C@@H](O)[C@H](N)[C@@H]2O)C[C@@H]2O[C@](O)(C[C@@H](O)C[C@@H](O)[C@H](O)CC[C@@H](O)C[C@@H](O)CC(=O)O[C@H]1C)C[C@H](O)[C@H]2C(=O)O` [Amphotericin B, reference compound]?
A: inhibition of growth at 0.05 µg/mL ([1]; dose used 0.05 µg/ml, 72 h): 62.7 ± 1.4%; EC50 ([2]; 72 h, Probit): 0.05 µg/mL and 50 nM; SI (selectivity index = LC50/EC50) [2]: 722; CC50 at 72 h [3]: 36.1 µg/mL and 39.1 µM

Q: For `COc1ccc2ccc(=O)oc2c1-c1cocc1C` [C], which “EC50 against axenic amastigote forms” value [6] is on record?
A: 10.5 µg/mL

Q: Which results are given for Meglumine antimoniate?
A: Inhibition intracellular amastigotes growth (%) ([2]; 72 h): 79.4 ± 2.1^ g %; Anti-leishmanial activity on intracellular amastigotes EC50 ([2]; 72 h, Probit): 9.4 ± 2.1 µg/mL; EC50 ([2]; 72 h, Probit): 25.7 µM; Cytotoxicity on U-937 cells LC50 (U-937 cells): 416.4 ± 66.6 µg/mL; CC50 (U-937 cells; read-out: Cytotoxicity on U-937 cells LC50 (converted)): 1140 µM

Q: With `C=C(C)[C@H]1O[C@@H]1c1c(OC[C@H]2OC2(C)C)ccc2ccc(=O)oc12` (relative stereo) [B] as the compound, how does the “EC50 against axenic amastigote forms” value [6] read?
A: 9.9 µg/mL

Q: Which results are given for `CCCCCCCCOc1ccc2c(C)c(/C=C/c3cc(OC)ccc3OC)c(=O)oc2c1` [Compound 7]?
A: inhibition at 20 µg/mL [1]: 7.1 ± 1.5%; CC50 at 72 h [3]: > 200 µg/mL and > 507 µM
